Converted amounts (≈) assume the structure as drawn.
Key:
[1] = Parallel Artificial Membrane Permeability (PAMPA); settings: for PAMPA permeability: donor buffer pH 6.0, 18-hour incubation; for Papp at 18 h, 150 µM: PAMPA, pH 6
[2] = molecular target: T1, human MAGL (Homo sapiens, UniProt Q99685); settings: = pIC50 - cLogP
T1 sequence (Q99685 1-303): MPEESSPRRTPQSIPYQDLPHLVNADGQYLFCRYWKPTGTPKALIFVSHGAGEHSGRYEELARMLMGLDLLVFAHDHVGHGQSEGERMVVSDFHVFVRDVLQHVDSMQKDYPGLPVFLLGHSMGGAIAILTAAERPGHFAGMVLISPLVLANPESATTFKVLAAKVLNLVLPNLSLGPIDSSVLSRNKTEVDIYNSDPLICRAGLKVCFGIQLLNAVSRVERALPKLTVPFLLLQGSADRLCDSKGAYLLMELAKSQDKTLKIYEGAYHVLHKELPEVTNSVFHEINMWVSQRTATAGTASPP

[3] = molecular target: CYP2D6 (Homo sapiens, UniProt P10635); experiment: Cytochrome P450 inhibition assay, CYP2D6; settings: liver microsomes
[4] = molecular target: CYP3A4 (Homo sapiens, UniProt P08684); experiment: Cytochrome P450 inhibition assay, CYP3A4; settings: liver microsomes
[5] = Microsomal clearance, human microsomes
[6] = Hepatocyte clearance; settings: for hepatocyte CLint at 1 µM: human, primary pooled cryopreserved hepatocytes in suspension
[7] = molecular target: CYP2C9 (Homo sapiens, UniProt P11712); experiment: Cytochrome P450 inhibition assay, CYP2C9; settings: liver microsomes
[8] = Solubility in 0.05M PO4-; format: physicochemical; settings: for solubility: 0.05 M phosphate buffer, aqueous buffer
[9] = molecular target: ABCB1 (MDR1, human P-gp) (Homo sapiens, UniProt P08183); experiment: P-glycoprotein (P-gp) assay in LLC-PK1 cells transfected with ABCB1; settings: human, LLC-PK1
[10] = Microsomal clearance, mouse microsomes
[11] = Solubility in FESSIF; format: physicochemical

Chain of CYP2D6 (P10635 whole entry): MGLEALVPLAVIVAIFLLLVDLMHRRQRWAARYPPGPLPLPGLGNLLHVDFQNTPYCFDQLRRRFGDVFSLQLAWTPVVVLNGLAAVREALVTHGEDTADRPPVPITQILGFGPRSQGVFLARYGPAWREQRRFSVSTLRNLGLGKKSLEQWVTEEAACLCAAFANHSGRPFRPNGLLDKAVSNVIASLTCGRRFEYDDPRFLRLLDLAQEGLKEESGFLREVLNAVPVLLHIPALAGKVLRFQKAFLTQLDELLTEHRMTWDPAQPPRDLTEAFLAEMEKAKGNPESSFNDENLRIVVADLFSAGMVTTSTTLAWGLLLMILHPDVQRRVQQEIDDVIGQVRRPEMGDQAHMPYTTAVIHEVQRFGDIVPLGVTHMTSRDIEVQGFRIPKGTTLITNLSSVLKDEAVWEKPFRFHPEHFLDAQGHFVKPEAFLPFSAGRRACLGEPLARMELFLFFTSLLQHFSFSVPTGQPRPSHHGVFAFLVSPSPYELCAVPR
Chain of CYP3A4 (P08684 whole entry): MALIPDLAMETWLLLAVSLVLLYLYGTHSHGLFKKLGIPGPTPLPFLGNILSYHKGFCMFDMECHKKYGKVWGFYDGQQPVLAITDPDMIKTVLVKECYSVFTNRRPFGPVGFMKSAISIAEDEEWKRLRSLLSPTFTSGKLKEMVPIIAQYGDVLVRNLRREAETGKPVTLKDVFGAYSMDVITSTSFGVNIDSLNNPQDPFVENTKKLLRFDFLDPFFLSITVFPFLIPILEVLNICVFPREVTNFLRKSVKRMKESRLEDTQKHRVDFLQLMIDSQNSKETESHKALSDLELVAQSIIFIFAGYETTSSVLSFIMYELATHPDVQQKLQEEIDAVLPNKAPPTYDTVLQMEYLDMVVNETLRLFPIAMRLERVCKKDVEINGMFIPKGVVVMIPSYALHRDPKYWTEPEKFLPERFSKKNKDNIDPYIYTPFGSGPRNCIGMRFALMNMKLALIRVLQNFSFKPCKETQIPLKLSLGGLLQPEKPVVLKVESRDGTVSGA
Chain of ABCB1 (MDR1, human P-gp) (P08183 whole entry): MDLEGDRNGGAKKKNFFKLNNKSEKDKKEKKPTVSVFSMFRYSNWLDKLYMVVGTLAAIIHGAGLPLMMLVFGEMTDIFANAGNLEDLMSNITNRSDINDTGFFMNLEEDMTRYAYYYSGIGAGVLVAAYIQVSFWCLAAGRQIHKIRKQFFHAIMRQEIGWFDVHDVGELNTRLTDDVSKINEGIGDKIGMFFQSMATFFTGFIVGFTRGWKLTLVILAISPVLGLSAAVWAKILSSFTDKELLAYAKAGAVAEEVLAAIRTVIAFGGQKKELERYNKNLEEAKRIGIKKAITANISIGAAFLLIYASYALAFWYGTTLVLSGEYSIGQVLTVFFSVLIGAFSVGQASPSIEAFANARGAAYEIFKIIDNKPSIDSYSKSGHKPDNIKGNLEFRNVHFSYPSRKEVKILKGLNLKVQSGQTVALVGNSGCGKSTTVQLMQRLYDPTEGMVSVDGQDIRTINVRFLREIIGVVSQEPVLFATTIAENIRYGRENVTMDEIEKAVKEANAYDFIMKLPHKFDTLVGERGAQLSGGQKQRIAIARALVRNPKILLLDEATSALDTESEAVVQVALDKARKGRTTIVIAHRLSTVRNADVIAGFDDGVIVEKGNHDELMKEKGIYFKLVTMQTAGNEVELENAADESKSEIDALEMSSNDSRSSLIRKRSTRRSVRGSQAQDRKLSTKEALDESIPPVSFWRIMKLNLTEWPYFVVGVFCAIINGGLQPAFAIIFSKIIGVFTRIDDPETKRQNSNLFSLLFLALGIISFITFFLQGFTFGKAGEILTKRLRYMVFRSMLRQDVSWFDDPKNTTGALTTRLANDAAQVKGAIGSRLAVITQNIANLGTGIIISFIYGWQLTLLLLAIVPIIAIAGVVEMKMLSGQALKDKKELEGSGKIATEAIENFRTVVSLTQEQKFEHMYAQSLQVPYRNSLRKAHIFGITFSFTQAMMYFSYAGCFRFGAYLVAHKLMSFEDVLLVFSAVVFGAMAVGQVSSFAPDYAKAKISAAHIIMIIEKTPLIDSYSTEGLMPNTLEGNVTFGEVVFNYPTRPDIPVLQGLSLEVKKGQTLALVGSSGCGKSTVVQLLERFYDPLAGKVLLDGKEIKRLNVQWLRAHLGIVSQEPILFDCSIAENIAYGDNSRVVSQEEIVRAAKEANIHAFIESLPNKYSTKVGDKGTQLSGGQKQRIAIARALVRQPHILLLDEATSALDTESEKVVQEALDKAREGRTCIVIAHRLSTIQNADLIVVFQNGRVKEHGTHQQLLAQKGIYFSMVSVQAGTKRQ
Chain of CYP2C9 (P11712 whole entry): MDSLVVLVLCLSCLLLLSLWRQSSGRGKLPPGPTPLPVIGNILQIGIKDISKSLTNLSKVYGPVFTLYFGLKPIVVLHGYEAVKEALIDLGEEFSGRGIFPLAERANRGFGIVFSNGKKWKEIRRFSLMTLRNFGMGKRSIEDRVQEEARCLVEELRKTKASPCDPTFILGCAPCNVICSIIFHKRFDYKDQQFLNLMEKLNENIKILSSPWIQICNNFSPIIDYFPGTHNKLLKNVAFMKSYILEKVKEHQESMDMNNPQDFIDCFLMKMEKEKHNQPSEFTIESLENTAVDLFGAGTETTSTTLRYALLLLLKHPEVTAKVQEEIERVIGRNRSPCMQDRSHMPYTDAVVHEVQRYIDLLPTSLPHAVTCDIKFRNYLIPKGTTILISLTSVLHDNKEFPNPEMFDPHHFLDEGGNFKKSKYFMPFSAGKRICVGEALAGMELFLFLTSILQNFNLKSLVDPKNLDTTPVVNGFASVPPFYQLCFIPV

| SMILES | CYP2D6 Inhibition [3] | CYP3A4 Inhibition [4] | Papp at 18 h, 150 µM [1] | cell permeability ([1]; in words, SI2.2, Fig. S1 (PAMPA vs LipE)) | microsomal CLint at 1 µM [5] | hepatocyte CLint at 1 µM [6] | CYP2C9 Inhibition [7] | solubility [8] | Papp A→B [9] | microsomal CLint at 1 µM [10] | solubility [11] | PAMPA permeability [1] | Lipophilic efficiency (LipE) [2] | Solubility in 0.05M PO4- [8] | Hepatocyte clearance ([6]; cryopreserved hepatocytes of human origin, 1 µM compound) |
| --- | --- | --- | --- | --- | --- | --- | --- | --- | --- | --- | --- | --- | --- | --- | --- |
| O=C(c1ccc2nc(-c3cccnc3C3(C4CCC4)CC3)oc2c1)N1CCN(c2nc3nc(Cl)ccc3o2)CC1 [Compound 28] | – | – | – | – | – | – | – | – | – | – | – | 5.8 10^-6 cm/s | 2.31 | – | – |
| O=C(c1ccc2nc(-c3cccnc3C3CCNCC3)oc2c1)N1CCN(c2nc3nc(Cl)ccc3o2)CC1.O=CO [Compound 26] | 18% | 12% | – | – | – | – | -23% | – | – | – | – | 0.01 10^-6 cm/s | – | > 590 µg/mL | – |
| O=C(c1ccc2nc(-c3cnccc3C3CCNCC3)oc2c1)N1CCN(c2nc3nc(Cl)ccc3o2)CC1.O=CO [Compound 25] | 34% | 70% | 0.02 ×10⁻⁶ cm/s | – | 10 µL/min/mg | 1 µL/min/1e6 cells | -5% | 84 µg/mL | – | 10 µL/min/mg | – | – | – | – | – |
| O=C(c1ccc2nc(-c3ccc(C4CCCC4)nc3)oc2c1)N1CC2(CC(n3cnc(C4CC4)n3)C2)C1 [Compound 30] | 3% | -40% | 4.4 ×10⁻⁶ cm/s | – | 563 µL/min/mg | 187 µL/min/1e6 cells | -19% | < 0.05 µg/mL | – | – | – | – | – | – | – |
| O=C(c1ccc2nc(-c3ccc(C4(C5CCC5)CC4)nc3)oc2c1)N1CCN(c2nc3ccccc3c(=O)[nH]2)CC1 [Compound 20] | 16% | 49% | – | – | – | – | 24% | – | – | – | – | – | 2.84 | < 0.05 µg/mL | 84.2 µL/min/10^6 cells |

More lines, main results first:

| CYP2D6 Inhibition [3] | CYP3A4 Inhibition [4] | Papp at 18 h, 150 µM [1] | cell permeability ([1]; in words, SI2.2, Fig. S1 (PAMPA vs LipE)) | microsomal CLint at 1 µM [5] | hepatocyte CLint at 1 µM [6] | CYP2C9 Inhibition [7] | solubility [8] | Papp A→B [9] | microsomal CLint at 1 µM [10] | solubility [11] | SMILES | PAMPA permeability [1] | Lipophilic efficiency (LipE) [2] | Solubility in 0.05M PO4- [8] | Hepatocyte clearance ([6]; cryopreserved hepatocytes of human origin, 1 µM compound) |
| --- | --- | --- | --- | --- | --- | --- | --- | --- | --- | --- | --- | --- | --- | --- | --- |
| 22% | > 90% | 12.1 ×10⁻⁶ cm/s | potent cell permeability | 431 µL/min/mg | 163 µL/min/1e6 cells | 43% | – | – | – | – | O=C(c1ccc2nc(-c3cnccc3C3CCCC3)oc2c1)N1CC(N2CCN(C(=O)c3nccs3)CC2)C1 [Compound 31] | – | – | – | – |
| 62% | -59% | 2.7 ×10⁻⁶ cm/s | – | 142 µL/min/mg | 104 µL/min/1e6 cells | 23% | < 0.05 µg/mL | 8.1 ×10⁻⁶ cm/s | – | – | O=C(c1ccc2nc(-c3ccc(C4CCCC4)nc3)oc2c1)N1CCN(c2nc3ccccc3c(=O)[nH]2)CC1 [Compound 22] | – | – | – | – |
| 23% | 44% | – | – | 17 µL/min/mg | 4.6 µL/min/1e6 cells | 49% | < 1.1 µg/mL | – | 47 µL/min/mg | – | O=C(c1ccc2nc(-c3cnc(C4CCCCC4)cc3C3CCCCC3)oc2c1)N1CCN(c2nc3ccccc3c(=O)[nH]2)CC1 [Compound 19] | – | – | – | – |
| 41% | 4% | 3.7 ×10⁻⁶ cm/s | – | 53 µL/min/mg | 47.7 µL/min/1e6 cells | 74% | < 0.05 µg/mL | 10 ×10⁻⁶ cm/s | 114 µL/min/mg | – | O=C(c1ccc2nc(-c3cccnc3C3CCCC3)oc2c1)N1CCN(c2nc3ccccc3c(=O)[nH]2)CC1 [Compound 21] | – | – | – | – |
| 45% | > 90% | – | – | 853 µL/min/mg | – | 62% | < 0.05 µg/mL | – | – | – | O=C(c1ccc2nc(-c3cnccc3C3CCCC3)oc2c1)N1CCN(c2nc3ccccc3c(=O)[nH]2)CC1 [Compound 18] | – | – | – | – |
| 26% | 8% | 8.5 ×10⁻⁶ cm/s | – | 69 µL/min/mg | 42.2 µL/min/1e6 cells | 45% | < 0.05 µg/mL | 9.3 ×10⁻⁶ cm/s | 61 µL/min/mg | 2.5 µg/mL (≈ 4.73 µM) | O=C(c1ccc2nc(-c3cccnc3C3CCCC3)oc2c1)N1CCN(c2nc3nc(Cl)ccc3o2)CC1 [Compound 24] | – | – | – | – |
